Measured values published in US9751837B2, “Kinase inhibitors” (RESPIVERT LIMITED, priority 2014, dated 2017).
In brackets after ≈: the same amount, converted by molar mass. Structures can show the parent of a compound that is named as a salt. Where two headings read alike, the source gives them in different places.

Experiment: Solubility in fasted-state simulated colonic fluid (FaSSCoF) at pH 6.5
Assay type: physicochemical
Conditions: 25 °C, pH 6.5, fassgf or other biorelevant, thermodynamic from solid
Procedure: The solubilities of compounds of the invention in FaSSCoF at pH 6.5 are determined using a modification of a previously-reported procedure (Vertzoni, M., et al. Pharm. Res. 2010, 27, 2187-2196). In place of the bile salt extract employed in the original procedure (which extract is no longer available), the modified procedure uses a mixture of sodium taurochlorate (0.15 g), glycocholic acid (0.15 g), ursodeoxycholic acid (0.05 g), cholic acid (0.05 g), and glycodeoxycholic acid (0.05 g). These five bile acids are ground together with a mortar and pestle to produce a fine white powder that is incorporated into the FaSSCoF, as outlined below.
Tris(hydroxymethyl)aminomethane (Tris; 0.275 g) and maleic acid (0.44 g) are dissolved in water (35 mL) to give a solution whose pH is adjusted to 6.5 by treatment with 0.5M NaOH (ca. 12 mL). The solution is then made up to 50 mL with water. A portion of this Tris/maleate buffer solution (ca. 25 mL) is added to a 0.5 L round-bottomed flask, before being treated with 0.00565 g of the bile acid mixture described above. Solutions of phosphatidylcholine (0.0111 g) in DCM (0.15 mL) and palmitic acid (0.0013 g) in DCM (0.15 mL) are added, then the organic solvent is evaporated off under reduced pressure at 40° C. until a clear solution, with no perceptible DCM odour, is achieved. The volume of the evaporated solution is adjusted to 50 mL by addition of the remainder of Tris/maleate buffer, then BSA (0.115 g) is added, before being dissolved by gentle agitation.
Test compounds are suspended in the pH 6.5 FaSSCoF medium to give a maximum final concentration of 2-10 mg/mL. The suspensions are equilibrated at 25° C. for 24 h, before being filtered through a glass fibre C filter. The filtrates are then diluted as appropriate for injection and quantification by HPLC with reference to a standard. Different volumes of the standard, diluted and undiluted sample solutions are injected and the solubilities are calculated using the peak areas determined by integration of the peak found at the same retention time as the principal peak in the standard injection.

[1] = pH 6.5 FaSSCoF Solubility (mg/mL) Run 1
[2] = pH 6.5 FaSSCoF Solubility (mg/mL) Run 2
[3] = pH 6.5 FaSSCoF Solubility (mg/mL) Run 3
[4] = pH 6.5 FaSSCoF Solubility (mg/mL) Run 4

Row | SMILES | solubility thermodynamic at 24 h [1] [mg/mL] | solubility thermodynamic at 24 h [2] [mg/mL] | solubility thermodynamic at 24 h [3] [mg/mL] | solubility thermodynamic at 24 h [4] [mg/mL] | solubility thermodynamic at 24 h (FaSSCoF pH 6.5, 25° C., 24 h, Run 1, read-out: pH 6.5 FaSSCoF Solubility (mg/mL) Run 1) [mg/mL] | solubility thermodynamic at 24 h (FaSSCoF pH 6.5, 25° C., 24 h, Run 2, read-out: pH 6.5 FaSSCoF Solubility (mg/mL) Run 2) [mg/mL]
1 | COc1cc(Nc2cc(Oc3ccc(NC(=O)Nc4cc(C(C)(C)C)cc(NS(C)(=O)=O)c4OC)c4ccccc34)ccn2)ccc1C(=O)NCCO [17(bn), 4-((4-((4-(3-(5-(tert-Butyl)-2-methoxy-3-(methylsulfonamido)phenyl)ureido)naphthalen-1-yl)oxy)pyridin-2-yl)amino)-N-(2-hydroxyethyl)-2-methoxybenzamide] | 0.008 (≈ 10.8 µM) | 0.006 (≈ 8.08 µM) | – | – | – | –
2 | COc1cc(Nc2cc(Oc3ccc(NC(=O)Nc4cc(C(C)(C)C)cc(NS(C)(=O)=O)c4OC)c4ccccc34)ccn2)ccc1C(=O)NC[C@@H]1O[C@H](CO)[C@@H](O)[C@H](O)[C@H]1O [17(co), 4-((4-((4-(3-(5-(tert-Butyl)-2-methoxy-3-(methylsulfonamido)phenyl)ureido)naphthalen-1-yl)oxy)pyridin-2-yl)amino)-2-methoxy-N-(((2S,3R,4R,5S,6R)-3,4,5-trihydroxy-6-(hydroxymethyl)tetrahydro-2H-pyran-2-yl)methyl)benzamide] | – | – | – | – | 0.005 (≈ 5.71 µM) | 0.006 (≈ 6.86 µM)
3 | COc1cc(Nc2cc(Oc3ccc(NC(=O)Nc4cc(C(C)(C)C)cc(NS(C)(=O)=O)c4OC)c4ccccc34)ccn2)ccc1C(=O)NC[C@H](O)[C@@H](O)[C@H](O)[C@H](O)CO [17(bw), 4-((4-((4-(3-(5-(tert-Butyl)-2-methoxy-3-(methylsulfonamido)phenyl)ureido)naphthalen-1-yl)oxy)pyridin-2-yl)amino)-2-methoxy-N-((2S,3R,4R,5R)-2,3,4,5,6-pentahydroxyhexyl)benzamide] | 0.002 (≈ 2.32 µM) | 0.003 (≈ 3.48 µM) | – | – | – | –
4 | COc1cc(Nc2cc(Oc3ccc(NC(=O)Nc4cc(C(C)(C)C)cc(NS(C)(=O)=O)c4OC)c4ccccc34)ccn2)cc(OC)c1C(=O)NC1CCN(C)CC1 [17(bz), 4-((4-((4-(3-(5-(tert-Butyl)-2-methoxy-3-(methylsulfonamido)phenyl)ureido)naphthalen-1-yl)oxy)pyridin-2-yl)amino)-2,6-dimethoxy-N-(1-methylpiperidin-4-yl)benzamide] | 0.021 (≈ 25.4 µM) | 0.026 (≈ 31.5 µM) | 0.014 (≈ 16.9 µM) | 0.019 (≈ 23 µM) | – | –
5 | COc1cc(Nc2cc(Oc3ccc(NC(=O)Nc4cc(C(C)(C)C)cc(NS(C)(=O)=O)c4OC)c4ccccc34)ccn2)cc(OC)c1C(=O)NCCC1CCN(C)CC1 [17(at), 4-((4-((4-(3-(5-(tert-Butyl)-2-methoxy-3-(methylsulfonamido)phenyl)ureido)naphthalen-1-yl)oxy)pyridin-2-yl)amino)-2,6-dimethoxy-N-(2-(1-methylpiperidin-4-yl)ethyl)benzamide] | 0.009 (≈ 10.5 µM) | 0.009 (≈ 10.5 µM) | – | – | – | –
6 | COc1cc(Nc2cc(Oc3ccc(NC(=O)Nc4cc(C(C)(C)C)cc(NS(C)(=O)=O)c4OC)c4ccccc34)ccn2)ccc1C(=O)NCC(=O)O [17(ar) (hydrochloride salt), 2-(4-((4-((4-(3-(5-(tert-Butyl)-2-methoxy-3-(methylsulfonamido)phenyl)ureido)naphthalen-1-yl)oxy)pyridin-2-yl)amino)-2-methoxybenzamido)acetic acid] | 0.204 | 0.198 | – | – | – | –
7 | CCC(=O)NS(=O)(=O)c1ccc(Nc2nccc(Oc3ccc(NC(=O)Nc4cc(C(C)(C)C)cc(NS(C)(=O)=O)c4OC)c4ccccc34)n2)cc1OC [17(bk) (sodium salt), N-((4-((4-((4-(3-(5-(tert-Butyl)-2-methoxy-3-(methylsulfonamido)phenyl)ureido)-naphthalen-1-yl)oxy)pyrimidin-2-yl)amino)-2-methoxyphenyl)sulfonyl)propionamide] | 0.042 | 0.037 | – | – | – | –

Further lines, with some results ahead:

Row | solubility thermodynamic at 24 h [1] [mg/mL] | solubility thermodynamic at 24 h [2] [mg/mL] | solubility thermodynamic at 24 h [3] [mg/mL] | solubility thermodynamic at 24 h [4] [mg/mL] | SMILES | solubility thermodynamic at 24 h (FaSSCoF pH 6.5, 25° C., 24 h, Run 1, read-out: pH 6.5 FaSSCoF Solubility (mg/mL) Run 1) [mg/mL] | solubility thermodynamic at 24 h (FaSSCoF pH 6.5, 25° C., 24 h, Run 2, read-out: pH 6.5 FaSSCoF Solubility (mg/mL) Run 2) [mg/mL]
8 | 0.025 (≈ 28.2 µM) | 0.024 (≈ 27.1 µM) | 0.007 (≈ 7.91 µM) | 0.006 (≈ 6.78 µM) | COc1cc(Nc2cc(Oc3ccc(NC(=O)Nc4cc(C(C)(C)C)cc(NS(C)(=O)=O)c4OC)c4ccccc34)ccn2)cc(OC)c1C(=O)NCCN1CCN(CCO)CC1 [Example 37, 4-((4-((4-(3-(5-(tert-Butyl)-2-methoxy-3-(methylsulfonamido)phenyl)ureido)naphthalen-1-yl)oxy)pyridin-2-yl)amino)-N-(2-(4-(2-hydroxyethyl)piperazin-1-yl)ethyl)-2,6-dimethoxybenzamide] | – | –
9 | 0.002 (≈ 2.3 µM) | – | – | – | COc1cc(Nc2cc(Oc3ccc(NC(=O)Nc4cc(C(C)(C)C)cc(NS(C)(=O)=O)c4OC)c4ccccc34)ccn2)cc(OC)c1C(=O)N1CCN(CCN(C)C)CC1 [17(cg), N-(5-(tert-Butyl)-3-(3-(4-((2-((4-(4-(2-(dimethylamino)ethyl)piperazine-1-carbonyl)-3,5-dimethoxyphenyl)amino)pyridin-4-yl)oxy)naphthalen-1-yl)ureido)-2-methoxyphenyl)methane sulfonamide] | – | –
10 | 0.005 (≈ 5.87 µM) | 0.005 (≈ 5.87 µM) | – | – | COc1cc(Nc2cc(Oc3ccc(NC(=O)Nc4cc(C(C)(C)C)cc(NS(C)(=O)=O)c4OC)c4ccccc34)ccn2)ccc1S(=O)(=O)CCOCCOCCO [Example 40, N-(5-(tert-Butyl)-3-(3-(4-((2-((4-((2-(2-(2-hydroxyethoxy)ethoxy)ethyl)sulfonyl)-3-methoxyphenyl)amino)pyridin-4-yl)oxy)naphthalen-1-yl)ureido)-2-methoxyphenyl)-methanesulfonamide] | – | –
11 | > 2.8 | > 2.8 | – | – | COc1cc(Nc2cc(Oc3ccc(NC(=O)Nc4cc(C(C)(C)C)cc(NS(C)(=O)=O)c4OC)c4ccccc34)ccn2)ccc1CP(C)(=O)O [70 (sodium salt)] | – | –
12 | 0.946 | 0.881 | – | – | COc1cc(Nc2cc(Oc3ccc(NC(=O)Nc4cc(C(C)(C)C)cc(NS(C)(=O)=O)c4OC)c4ccccc34)ccn2)ccc1C(=O)NCCOCCOCCOP(=O)(O)O [19 (ammonium salt), 2-(2-(2-(4-((4-((4-(3-(5-(tert-Butyl)-2-methoxy-3-(methylsulfonamido)phenyl)ureido)-naphthalen-1-yl)oxy)pyridin-2-yl)amino)-2-methoxybenzamido)ethoxy)ethoxy)ethyl dihydrogen phosphate] | – | –
13 | 0.051 | 0.049 | – | – | COc1cc(Nc2cc(Oc3ccc(NC(=O)Nc4cc(C(C)(C)C)cc(NS(C)(=O)=O)c4OC)c4ccccc34)ccn2)ccc1C(=O)NCCNC(=O)CCC(=O)O [17(cd) (hydrochloride salt), 4-((2-(4-((4-((4-(3-(5-(tert-Butyl)-2-methoxy-3-(methylsulfonamido)phenyl)ureido)-naphthalen-1-yl)oxy)pyridin-2-yl)amino)-2-methoxybenzamido)ethyl)amino)-4-oxobutanoic acid] | – | –
14 | 0.007 (≈ 8.4 µM) | 0.009 (≈ 10.8 µM) | – | – | COc1cc(Nc2cc(Oc3ccc(NC(=O)Nc4cc(C(C)(C)C)cc(NS(C)(=O)=O)c4OC)c4ccccc34)ccn2)ccc1C(=O)NC[C@H](O)[C@H](O)[C@H](O)CO [Example 42, 4-((4-((4-(3-(5-(tert-Butyl)-2-methoxy-3-(methylsulfonamido)phenyl)ureido)naphthalen-1-yl)oxy)pyridin-2-yl)amino)-2-methoxy-N-((2S,3S,4R)-2,3,4,5-tetrahydroxypentyl)benzamide] | – | –
15 | 0.006 (≈ 6.7 µM) | 0.006 (≈ 6.7 µM) | – | – | COc1cc(Nc2cc(Oc3ccc(NC(=O)Nc4cc(C(C)(C)C)cc(NS(C)(=O)=O)c4OC)c4ccccc34)ccn2)ccc1C(=O)NCCN1CCN(C(=O)CN(C)C)CC1 [17(cj), 4-((4-((4-(3-(5-(tert-Butyl)-2-methoxy-3-(methylsulfonamido)phenyl)ureido)naphthalen-1-yl)oxy)pyridin-2-yl)amino)-N-(2-(4-(2-(dimethylamino)acetyl)piperazin-1-yl)ethyl)-2-methoxybenzamide] | – | –
16 | 0.008 (≈ 9.35 µM) | 0.008 (≈ 9.35 µM) | – | – | COc1cc(Nc2cc(Oc3ccc(NC(=O)Nc4cc(C(C)(C)C)cc(NS(C)(=O)=O)c4OC)c4ccccc34)ccn2)cc(OC)c1C(=O)NCCCN1CCOCC1 [Example 23, 4-((4-((4-(3-(5-(tert-Butyl)-2-methoxy-3-(methylsulfonamido)phenyl)ureido)naphthalen-1-yl)oxy)pyridin-2-yl)amino)-2,6-dimethoxy-N-(3-morpholinopropyl)benzamide] | – | –
